Assays:
[1] = Saturation concentration in different oils (soy, sunflower, rapeseed); format: physicochemical; conditions: 25° C.
Method: Each of said mixtures was continuously and gently stirred for 10 minutes at ambient temperature (25° C.) and then maintained at rest for 60 minutes. The saturation concentration was considered to be that which was immediately less than a concentration where deposition was observed, but in which no deposition of the active ingredient was observed.

VEGF = test: Immunohistochemistry of VEGF in respiratory tract tissue of sodium hypochlorite aerosol-treated rabbits; format: in vivo, New Zealand albino rabbits
Source text: It is known that the factors TGF-α, TGF-β 1, TGF-β 2, TGF-β 3, SPARC, MMP-3; MMP-7, MMP-9, MMP-11, MMP-13 and MMP-14, TGF-β, NF-kB, EGF, MMP-9, VEGF and TNF-α which are produced by lung cells (pneumocytes, fibroblasts and vascular endothelial cells) and inflammatory cells (macrophages, lymphocytes and polymorphonuclear leukocytes) are involved in the pathophysiology and development of said respiratory tract diseases. […] Herein, 27 New Zealand albino rabbits (New Zealand White Rabbit) with an initial average weight about 3 kg were used in this example. All subjects were administered an aerosol of a solution consisting of a mixture of water and sodium hypochlorite (35 g sodium hypochlorite per liter of water) at a rate of 5 mL of said solution by inhalation three times a day for 7 days (days 1 to 7 of experimentation). Subsequently, from days 3 to 7, a group of 3 rabbits (Group 1) was administered an oral dose of 10 mg/kg body weight per day, another group of 3 rabbits (Group 2) was administered an oral dose of 40 mg/kg body weight per day, a third group (Group 3) was administered an oral dose of 80 mg/kg body weight per day and a fourth group (Group 4) was administered an oral dose of 100 mg/kg body weight per day. […] This mixture was administered as an aerosol by inhalation, also from days 3 to 7, to a group of 3 rabbits (group 5) at a dose of 0.05 mg/kg body weight per day, to another group of three rabbits (Group 6) at a dose of 0.1 mg/kg body weight per day, to another group of three rabbits (Group 7) at a dose of 0.2 mg/kg body weight per day and to another group of three rabbits (Group 8) at a dose of 0.4 mg/kg body weight per day. A placebo consisting only of olive oil was administered from days 3 to 7 to a control group of 3 rabbits (placebo group). In parallel, 3 rabbits were kept under identical conditions but were not administered any treatment nor the aforementioned sodium hypochlorite solution (control group). […] On day 7 of the experiment all animals were euthanized and necropsied. […] Samples were taken at the peripheral level of the lung parenchyma, just below the pleural surface. Tissue samples were also taken from the nasal cavity, pharynx, larynx and bronchi. Immunohistochemistry studies were performed for all samples to evaluate the levels of the markers TGF-α, TGF-β 1, TGF-β 2, TGF-β 3 SPARC, MMP-3; MMP-7, MMP-9, MMP-11, MMP-14, TGF-β, TNF-α and VEGF. In said immunohistochemistry studies, a sample of each sample was dehydrated by treatment with increasing concentrations of ethanol and finally xylene. Subsequently said dried samples were embedded in paraffin, thus creating a block. Said paraffin blocks were cut on a microtome to a thickness of 5 μm, and the resulting sections (slices) were placed on slides suitable for conducting immunohistochemistry techniques. Subsequently, the sections were deparaffinised by immersion in xylene and then rehydrated through immersion in a series of solutions containing decreasing concentrations of ethanol and, finally, water. […] The samples were then allowed to cool to room temperature over 10 minutes. Endogenous peroxidase activity was blocked by treatment with 3% hydrogen peroxide over 30 min at room temperature. […] In order to verify the expression of NK1 receptors, the cell samples were incubated in the presence of anti-NK1 antibodies ([…], Sigma-Aldrich) diluted 1:1000 at 4° C. overnight. After this time they were washed in 0.05M Tris buffer at room temperature. Subsequently, Envision System-HRP (Dako) reagents were added for 30 min at room temperature. Once this time had expired, the samples were again washed with 0.05 M Tris buffer, and immunoreactivity was visualized by light microscopy with a chromogenic solution with 3,3'-diaminobenzidine (DAB+; Dako, USA). In order to differentiate the cell nuclei, these were lightly stained with haematoxylin. Samples that were not incubated with the primary antibody, but wherein this was replaced by a non-immune serum were used as negative controls. […]

[2] = Tissue concentration of aprepitant by HPLC after oral or inhaled administration to rabbits; format: in vivo, New Zealand albino rabbits; conditions: oral, 10 to 100 mg/kg per day

`C[C@@H](OC1OCCN(Cc2nc(=O)[nH][nH]2)C1c1ccc(F)cc1)c1cc(C(F)(F)F)cc(C(F)(F)F)c1` (stereo in doubt) [Aprepitant, 5-([(2R,3S)-2-((R)-1-[3,5-bis(trifluoromethyl)phenyl]ethoxy)-3-(4-fluorophenyl)morpholino]methyl)-1H-1,2,4-triazol-3(2H)-one] showed a Saturation concentration ([1]; Rapeseed oil) of 80 nM, a Saturation concentration ([1]; Soy oil) of 60 nM and a Saturation concentration ([1]; Sunflower oil) of 70 nM. For the same compound, the “Percent increase in VEGF with respect to the control group” value (“Percent increase in VEGF” for short) (VEGF; bronchial tissue, Group 1, oral 10 mg/kg per day) was 457.34%, the “Percent increase in VEGF” value (VEGF; bronchial tissue, Group 2, oral 40 mg/kg per day) was 356.45% and the “Percent increase in VEGF” value (VEGF; bronchial tissue, Group 3, oral 80 mg/kg per day) was 256.34%. The “Percent increase in VEGF” value (VEGF; bronchial tissue, Group 4, oral 100 mg/kg per day) was 203.56%, the “% Med G5/C: percent increase in marker VEGF with respect to the control group” value (VEGF; bronchial tissue, Group 5) was 324.53% and the “% Med G6/C: percent increase in marker VEGF with respect to the control group” value (VEGF; bronchial tissue, Group 6) was 235.71%. For the same compound, the “% Med G7/C: percent increase in marker VEGF with respect to the control group” value (VEGF; bronchial tissue, Group 7) was 153.57%, the “% Med G8/C: percent increase in marker VEGF with respect to the control group” value (VEGF; bronchial tissue, Group 8) was 112.71% and the “Percent increase in VEGF” value (VEGF; laryngeal tissue, Group 1, oral 10 mg/kg per day) was 1,134.34%. For the same compound, the “Percent increase in VEGF” value (VEGF; laryngeal tissue, Group 2, oral 40 mg/kg per day) was 980.54%, the “Percent increase in VEGF” value (VEGF; laryngeal tissue, Group 3, oral 80 mg/kg per day) was 875.80% and the “Percent increase in VEGF” value (VEGF; laryngeal tissue, Group 4, oral 100 mg/kg per day) was 667.82%. The “Percent increase in VEGF” value (VEGF; laryngeal tissue, Group 5, inhalation 0.05 mg/kg per day) was 950.34%, the “Percent increase in VEGF” value (VEGF; laryngeal tissue, Group 6, inhalation 0.1 mg/kg per day) was 670.32% and the “Percent increase in VEGF” value (VEGF; laryngeal tissue, Group 7, inhalation 0.2 mg/kg per day) was 570.12%. For the same compound, the “Percent increase in VEGF” value (VEGF; laryngeal tissue, Group 8, inhalation 0.4 mg/kg per day) was 250.21%, the “Percent increase in VEGF” value (VEGF; lung tissue, Group 1, oral 10 mg/kg per day) was 655.77% and the “Percent increase in VEGF” value (VEGF; lung tissue, Group 2, oral 40 mg/kg per day) was 512.28%. For the same compound, the “Percent increase in VEGF” value (VEGF; lung tissue, Group 3, oral 80 mg/kg per day) was 458.30%, the “Percent increase in VEGF” value (VEGF; lung tissue, Group 4, oral 100 mg/kg per day) was 342.93% and the “Percent increase in VEGF” value (VEGF; lung tissue, Group 5, inhalation 0.05 mg/kg per day) was 575.62%. For the same compound, the “Percent increase in VEGF” value (VEGF; lung tissue, Group 6, inhalation 0.1 mg/kg per day) was 391.91%, the “Percent increase in VEGF” value (VEGF; lung tissue, Group 7, inhalation 0.2 mg/kg per day) was 200.18% and the “Percent increase in VEGF” value (VEGF; lung tissue, Group 8, inhalation 0.4 mg/kg per day) was 145.64%. The “Percent increase in VEGF” value (VEGF; nasal cavity tissue, Group 1, oral 10 mg/kg per day) was 1,293.11%, the “Percent increase in VEGF” value (VEGF; nasal cavity tissue, Group 2, oral 40 mg/kg per day) was 969.58% and the “Percent increase in VEGF” value (VEGF; nasal cavity tissue, Group 3, oral 80 mg/kg per day) was 716.62%. For the same compound, the “Percent increase in VEGF” value (VEGF; nasal cavity tissue, Group 4, oral 100 mg/kg per day) was 576.80%, the “Percent increase in VEGF” value (VEGF; nasal cavity tissue, Group 5, inhalation 0.05 mg/kg per day) was 1,727.98% and the “Percent increase in VEGF” value (VEGF; nasal cavity tissue, Group 6, inhalation 0.1 mg/kg per day) was 1,010.56%. For the same compound, the “Percent increase in VEGF” value (VEGF; nasal cavity tissue, Group 7, inhalation 0.2 mg/kg per day) was 323.15%, the “Percent increase in VEGF” value (VEGF; nasal cavity tissue, Group 8, inhalation 0.4 mg/kg per day) was 145.68% and the “Percent increase in VEGF” value (VEGF; pharyngeal tissue, Group 1, oral 10 mg/kg per day) was 1,789.12%. The “Percent increase in VEGF” value (VEGF; pharyngeal tissue, Group 2, oral 40 mg/kg per day) was 1,256.67%, the “Percent increase in VEGF” value (VEGF; pharyngeal tissue, Group 3, oral 80 mg/kg per day) was 998.56% and the “Percent increase in VEGF” value (VEGF; pharyngeal tissue, Group 4, oral 100 mg/kg per day) was 567.45%. For the same compound, the “Percent increase in VEGF” value (VEGF; pharyngeal tissue, Group 5, inhalation 0.05 mg/kg per day) was 1,858.37%, the “Percent increase in VEGF” value (VEGF; pharyngeal tissue, Group 6, inhalation 0.1 mg/kg per day) was 1,198.56% and the “Percent increase in VEGF” value (VEGF; pharyngeal tissue, Group 7, inhalation 0.2 mg/kg per day) was 654.32%. The “Percent increase in VEGF” value (VEGF; pharyngeal tissue, Group 8, inhalation 0.4 mg/kg per day) was 121.34% and the “relationship between dose and concentration in lung tissue” value [2] was “non-linear and not proportional”.

Reference: patent US20170290774A1, “NEUROKININ-1 RECEPTOR ANTAGONIST COMPOSITION FOR TREATMENT OF DISEASES AND CONDITIONS OF THE RESPIRATORY TRACT” (PLUS VITECH, S.L., priority 2014, published 2017)
